pIC50: −log10 of the molar value. Where two headings read alike, the source gives them in different places.
Legend:
[1] = system: Pseudomonas aeruginosa MB9798 vs MB9799; conditions: ratio MITC95 PA_9798/MITC95 PA_9799
Description: The strain background was Pseudomonas aeruginosa PAO1.
The strain set was then used as a pair to determine the effect of metallo-β-lactamase inhibitors of Formula I on the MIC of imipenem and/or ceftazidime. A fixed concentration of antibiotic was included in standard microbroth MIC tests, usually at the CLSI (Clinical and Laboratory Standards Institute) breakpoint concentration. A fixed amount of a class A/C beta-lactamase inhibitor was also included to inhibit the resident Pseudomonas AmpC enzyme. A serial titration of the metallo-β-lactamase inhibitor was included and the concentration of metallo-β-lactamase inhibitor which restores susceptibility of the strain to the included antibiotic was recorded. That concentration of metallo-β-lactamase inhibitor was then compared between the two strains to determine the fold difference between the efflux+ (MB9798) and efflux− (MB9799) strains. This was taken as an indication of the extent to which the MBLi is subject to efflux.

NDM-1 = NDM-1 (Klebsiella pneumoniae, UniProt C7C422); test: biochemical; format: biochemical; conditions: fluorescence assay, CCF2-FA substrate, 1 pM enzyme, 2 hours at 25° C.; read-out: NDM-1 IC50
Chain of NDM-1 (C7C422 whole entry, looked up, species assumed): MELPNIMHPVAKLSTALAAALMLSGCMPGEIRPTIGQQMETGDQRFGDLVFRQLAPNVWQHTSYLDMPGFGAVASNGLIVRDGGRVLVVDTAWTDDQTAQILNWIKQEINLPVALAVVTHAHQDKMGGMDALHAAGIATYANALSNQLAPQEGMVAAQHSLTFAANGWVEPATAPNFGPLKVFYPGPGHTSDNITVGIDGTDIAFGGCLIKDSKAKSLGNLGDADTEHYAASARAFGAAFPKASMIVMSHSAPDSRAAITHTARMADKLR
Outline: (§1)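 Fluorescence assay, CCF2-FA substrate (cephalosporin core linking 7-hydroxycoumarin to fluorescein); inhibitor + MBL + substrate, 2 h, 25° C. IC50 by 4-parameter fit, semi-log plot.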

IMP-1 = IMP-1 (Serratia marcescens, UniProt P52699); test: biochemical; format: biochemical; conditions: CCF2-FA substrate, 2 pM enzyme, 2 hours at 25° C.
Chain of IMP-1 (P52699 whole entry, looked up, species assumed): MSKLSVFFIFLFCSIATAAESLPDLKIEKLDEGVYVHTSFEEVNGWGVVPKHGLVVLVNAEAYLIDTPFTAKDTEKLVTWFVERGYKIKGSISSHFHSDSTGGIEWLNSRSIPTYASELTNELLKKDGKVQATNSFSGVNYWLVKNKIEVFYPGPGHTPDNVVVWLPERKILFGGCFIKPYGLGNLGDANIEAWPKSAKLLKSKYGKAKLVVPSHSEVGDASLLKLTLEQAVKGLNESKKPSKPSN
Outline: as §1

[2] = system: Escherichia coli expressing NDM-1 (CLB30005, CLB30016); format: cell-based; conditions: with imipenem 1 μg/ml; 95% inhibition of bacterial growth
Outline: (§2)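 Imipenem 1 μg/ml + inhibitor; MBL-expressing clinical strains in 1.1×CAMHB, inoculum from saline suspension diluted 1:100; 35° C, 22–24 h; absorbance read-out.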

[3] = system: Serratia marcescens expressing IMP-1 (CL5741); format: cell-based; conditions: with imipenem 1 μg/ml; 95% inhibition of bacterial growth
Outline: as §2

[4] = system: Klebsiella pneumoniae expressing VIM-1 (IHMA599644); format: cell-based; conditions: with imipenem 1 μg/ml; 95% inhibition of bacterial growth
Outline: as §2

[5] = system: Pseudomonas aeruginosa efflux− (MB9799), IMP-1; format: cell-based; conditions: concentration restoring susceptibility to imipenem at 2 μg/mL in the presence of a class A, C, D serine β-lactamase inhibitor closely related to relebactam
Outline: (§3)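 PAO1 pair, broth microdilution; fixed β-lactam (imipenem/ceftazidime) at ~CLSI breakpoint + fixed class A/C BLI for AmpC; serial MBLi titration; endpoint = MBLi conc. restoring susceptibility; MB9798:MB9799 ratio = efflux liability.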

[6] = system: Pseudomonas aeruginosa efflux+ (MB9798), IMP-1; format: cell-based; conditions: concentration restoring susceptibility to imipenem at 2 μg/mL in the presence of a class A, C, D serine β-lactamase inhibitor closely related to relebactam
Outline: as §3

VIM-1 = VIM-1 (Pseudomonas aeruginosa (strain ATCC 15692 / DSM 22644 / CIP 104116 / JCM 14847 / LMG 12228 / 1C / PRS 101 / PAO1), UniProt A0A0F7KYQ8); test: biochemical; conditions: CCF2-FA substrate, 30 pM enzyme, 2 hours at 25° C.
Outline: as §1

[7] = fluorescence assay, read-out: IMP-1 IC50
[8] = fluorescence assay, read-out: VIM-1 IC50

Row | Structure (SMILES) | Efflux ratio [1] | pIC50 (NDM-1) | pIC50 (IMP-1; [7]) | Escherichia coli expressing NDM-1 (CLB30016) MITC95 [2] [µM] | Serratia marcescens expressing IMP-1 (CL5741) MITC95 [3] [µM] | Klebsiella pneumoniae expressing VIM-1 (IHMA599644) MITC95 [4] [µM] | P. aeruginosa expressing IMP-1, efflux − (MB9799) MITC95 [5] [µM] | P. aeruginosa expressing IMP-1, efflux + (MB9798) MITC95 [6] [µM] | pIC50 (VIM-1; [8]) | pIC50 (IMP-1; IMP-1 IC50, fluorescence assay) | pIC50 (VIM-1; VIM-1 IC50, fluorescence assay)
1 | Nc1ccc2cccc(-c3ccc(S(N)(=O)=O)c(S(N)(=O)=O)c3-c3nn[nH]n3)c2n1 [Example 2, 4-(2-aminoquinolin-8-yl)-3-(2H-tetrazol-5-yl)benzene-1,2-disulfonamide] | 1.00 | 9.79 | 9.55 | 0.7813 | 0.7813 | 1.563 | 0.7813 | 0.7813 | 9.34 | – | –
2 | NS(=O)(=O)c1ccc(-c2cccc3cn[nH]c23)c(-c2nn[nH]n2)c1S(N)(=O)=O [Example 3, 4-(1H-indazol-7-yl)-3-(2H-tetrazol-5-yl)benzene-1,2-disulfonamide] | 2.00 | 9.82 | 9.63 | 3.125 | 1.563 | 6.25 | 1.563 | 3.125 | 9.59 | – | –
3 | Nc1nc2c(-c3ccc(S(N)(=O)=O)c(S(N)(=O)=O)c3-c3nn[nH]n3)cccc2o1 [Example 4, 4-(2-aminobenzo[d]oxazol-4-yl)-3-(2H-tetrazol-5-yl)benzene-1,2-disulfonamide] | 1.00 | 9.87 | 9.45 | 3.125 | 1.563 | 3.125 | 1.563 | 1.563 | 9.63 | – | –
4 | Cn1c(N)nc2c(-c3ccc(S(N)(=O)=O)c(S(N)(=O)=O)c3-c3nn[nH]n3)cccc21 [Example 5, 4-(2-amino-1-methyl-1H-benzo[d]imidazol-4-yl)-3-(2H-tetrazol-5-yl)benzene-1,2-disulfonamide] | 2.00 | 9.71 | 9.46 | 0.25 | 0.8906 | 1.781 | 0.8906 | 1.781 | 9.84 | – | –
5 | Cc1ccc(-c2ccc(S(N)(=O)=O)c(S(N)(=O)=O)c2-c2nn[nH]n2)c2nc(N)sc12 [Example 6, 4-(2-amino-7-methylbenzo[d]thiazol-4-yl)-3-(2H-tetrazol-5-yl)benzene-1,2-disulfonamide] | 1.00 | 10.57 | 10.19 | 6.25 | 1.563 | 6.25 | 1.563 | 1.563 | 10.04 | – | –
6 | CNS(=O)(=O)c1ccc(-c2cccc3cn[nH]c23)c(-c2nn[nH]n2)c1S(N)(=O)=O [Example 7, 4-(1H-indazol-7-yl)-N1-methyl-3-(2H-tetrazol-5-yl)benzene-1,2-disulfonamide] | 15.99 | 10.00 | – | 6.25 | 3.125 | 6.25 | 1.563 | 25 | 9.96 | 9.67 | –
7 | NS(=O)(=O)c1ccc(-c2cccc3[nH]c(C(=O)O)nc23)c(-c2nn[nH]n2)c1S(N)(=O)=O [Example 8, 4-(3,4-disulfamoyl-2-(2H-tetrazol-5-yl)phenyl)-1H-benzo[d]imidazole-2-carboxylic acid] | 1.00 | 9.91 | 9.44 | 1.563 | 3.125 | 6.25 | 1.563 | 1.563 | 9.54 | – | –
8 | NCCNS(=O)(=O)c1ccc(-c2cccc3cn[nH]c23)c(-c2nn[nH]n2)c1S(N)(=O)=O [Example 9, N^1-(2-aminoethyl)-4-(1H-indazol-7-yl)-3-(2H-tetrazol-5-yl)benzene-1,2-disulfonamide] | 0.50 | 10.07 | 9.77 | 0.7813 | 1.563 | 1.563 | 0.7813 | 0.3906 | 9.88 | – | –
9 | Cl.Cn1c(N)nc2c(-c3ccc(S(=O)(=O)NCCN)c(S(N)(=O)=O)c3-c3nn[nH]n3)cccc21 [Example 10, 4-(2-amino-1-methyl-1H-benzo[d]imidazol-4-yl)-N1-(2-aminoethyl)-3-(2H-tetrazol-5-yl)benzene-1,2-disulfonamide hydrochloride] | 1.00 | 10.05 | 9.63 | 0.1875 | 0.6406 | 1.531 | 0.7656 | 0.7656 | 9.75 | – | –
10 | NCCNS(=O)(=O)c1ccc(-c2cccc3[nH]c(N)nc23)c(-c2nn[nH]n2)c1S(N)(=O)=O [Example 12, 4-(2-amino-1H-benzo[d]imidazol-4-yl)-N^1-(2-aminoethyl)-3-(2H-tetrazol-5-yl)benzene-1,2-disulfonamide] | 0.75 | 10.37 | 9.50 | 0.25 | 0.6302 | 0.5703 | 0.5 | 0.375 | – | – | 9.99
11 | NCCNS(=O)(=O)c1ccc(-c2cccc3oc(C(=O)O)nc23)c(-c2nn[nH]n2)c1S(N)(=O)=O [Example 13, 4-(4-(N-(2-aminoethyl)sulfamoyl)-3-sulfamoyl-2-(2H-tetrazol-5-yl)phenyl)benzo[d]oxazole-2-carboxylic acid] | 2.00 | 10.12 | 8.67 | 12.5 | 12.5 | 25 | 6.25 | 12.5 | 9.39 | – | –
12 | Nc1nc2c(-c3ccc(S(=O)(=O)NC4CCS(=O)(=O)CC4)c(S(N)(=O)=O)c3-c3nnn[nH]3)cccc2s1 [Example 14, 4-(2-amino-1,3-benzothiazol-4-yl)-N1-(1,1-dioxidotetrahydro-2H-thiopyran-4-yl)-3-(1H-tetrazol-5-yl)benzene-1,2-disulfonamide] | 1.00 | 10.59 | 9.76 | 12.5 | 3.125 | 12.5 | 3.125 | 3.125 | 9.75 | – | –

Reference: US10221163B2 (priority 2015, dated 2019)
